Reference: US9045468B2, “2,5-methano- and 2,5-ethano-tetrahydrobenzazepine derivatives and use thereof to block reuptake of norepinephrine, dopamine, and serotonin” (Albany Molecular Research, Inc., priority 2010, dated 2015)

How the values were obtained:
hSERT = hSERT (Homo sapiens (Human), UniProt P31645); assay: SERT radioligand binding assay ([125I]RTI-55, HEK-293 membranes); settings: recombinant HEK-293 membranes, [125I]RTI-55; read-out: Binding Affinity (IC50, nM) SERT
hDAT = hDAT (Homo sapiens (Human), UniProt Q01959); assay: DAT radioligand binding assay ([125I]RTI-55, HEK-293 membranes); settings: recombinant HEK-293 membranes, [125I]RTI-55; read-out: Binding Affinity (IC50, nM) DAT
hDAT, sequence (Q01959 whole entry): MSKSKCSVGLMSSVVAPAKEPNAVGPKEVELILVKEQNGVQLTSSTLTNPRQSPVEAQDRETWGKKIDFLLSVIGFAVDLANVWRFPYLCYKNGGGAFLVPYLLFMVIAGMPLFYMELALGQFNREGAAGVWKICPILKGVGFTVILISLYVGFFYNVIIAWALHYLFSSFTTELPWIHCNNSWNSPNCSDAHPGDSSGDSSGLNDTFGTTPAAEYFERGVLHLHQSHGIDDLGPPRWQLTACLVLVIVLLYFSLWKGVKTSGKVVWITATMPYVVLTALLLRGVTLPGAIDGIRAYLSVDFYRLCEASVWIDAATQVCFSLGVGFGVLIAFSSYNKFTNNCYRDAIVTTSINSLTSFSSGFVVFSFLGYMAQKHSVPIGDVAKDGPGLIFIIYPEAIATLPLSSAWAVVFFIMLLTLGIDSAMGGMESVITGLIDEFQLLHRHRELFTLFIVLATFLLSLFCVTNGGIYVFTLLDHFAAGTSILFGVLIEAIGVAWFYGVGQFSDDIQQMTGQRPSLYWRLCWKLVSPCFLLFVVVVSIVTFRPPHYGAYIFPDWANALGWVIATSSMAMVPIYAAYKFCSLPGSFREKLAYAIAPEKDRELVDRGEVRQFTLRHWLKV

hNET = hNET (Homo sapiens (Human), UniProt P23975); assay: NET radioligand binding assay ([3H]nisoxetine, HEK-293 membranes); settings: recombinant HEK-293 membranes, [3H]nisoxetine; read-out: Binding Affinity (IC50, nM) NET
hNET, sequence (P23975 whole entry): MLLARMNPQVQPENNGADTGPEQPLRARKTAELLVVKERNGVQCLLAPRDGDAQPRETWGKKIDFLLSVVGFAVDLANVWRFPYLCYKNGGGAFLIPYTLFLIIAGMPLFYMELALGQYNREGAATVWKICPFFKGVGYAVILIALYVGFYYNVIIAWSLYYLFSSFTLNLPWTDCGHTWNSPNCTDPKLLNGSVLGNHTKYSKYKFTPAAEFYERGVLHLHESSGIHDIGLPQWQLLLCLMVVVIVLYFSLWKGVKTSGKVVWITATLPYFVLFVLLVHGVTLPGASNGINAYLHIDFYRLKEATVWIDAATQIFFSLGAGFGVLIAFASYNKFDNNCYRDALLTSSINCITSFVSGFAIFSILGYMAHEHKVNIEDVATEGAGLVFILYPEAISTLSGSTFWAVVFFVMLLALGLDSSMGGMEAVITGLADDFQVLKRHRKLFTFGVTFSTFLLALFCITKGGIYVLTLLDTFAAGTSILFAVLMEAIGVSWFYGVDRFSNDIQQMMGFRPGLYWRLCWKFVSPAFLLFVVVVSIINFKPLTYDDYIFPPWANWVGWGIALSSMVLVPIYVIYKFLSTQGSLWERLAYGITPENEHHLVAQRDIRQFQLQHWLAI

SERT = assay: Ex vivo transporter occupancy assay, SERT ([3H]citalopram, brain tissue); assay type: in vivo; settings: dosed orally, time until sacrifice 3 h
From the text: (§1) The general procedure for brain tissue collection and transporter occupancy assessment is briefly described as follows. Mice were sacrificed by asphyxiation in CO2, rats by decapitation and dogs by IV injection of euthanasia solution. For mice and rats, after the brains were removed from the skull, the forebrain tissue (removal of the brainstem and cerebellum) was used for SERT, NET, and DAT occupancy assessment. In dogs, the striatum was dissected for DAT occupancy and the remaining forebrain tissue (without the striatum, brainstem, and cerebellum) was used for SERT and NET occupancy assessment. The brain tissues were frozen in chilled isopentane and stored at −80° C. until homogenization.
(§2) The brain tissues were thawed and then homogenized using a polytron homogenizer (Kinematica). Sample aliquots were frozen immediately and stored at −80° C. Protein content was measured for each sample using a Coomassie protein assay kit (Pierce).
(§3) On the day of ex vivo binding for occupancy assessment, frozen sample aliquots were thawed and needle homogenized, and 100 μg of the tissue was incubated for SERT, NET, and DAT binding under assay conditions summarized in Table 1. After incubation, the reactions were terminated by the addition of ice-cold assay buffer and rapid filtration through a Brandel Cell Harvester using FPXLR-196 filters. The filters were washed twice with ice-cold incubation buffer, punched into a clear plate prior to the addition of 200 ul scintillation fluid per well. Radioligand was measured using a Wallac Microbeta liquid scintillation counter.
(§4) The specific binding was calculated by subtracting the value of the non-specific binding from that of the total binding in each sample. The percent occupancy was calculated as (1−specific binding in drug treated/specific binding in vehicle treated)×100%. […] Nonlinear regression was performed using GraphPad Prism version 3.00 (GraphPad Software, San Diego, Calif.).

NET = assay: Ex vivo transporter occupancy assay, NET ([3H]nisoxetine, brain tissue); assay type: in vivo; settings: dosed orally, time until sacrifice 3 h
From the text: as §1, §2
as §3, with “After incubation, the reactions were terminated by the addition of ice-cold assay buffer and rapid filtration through a Brandel Cell Harvester using FPXLR-196 filters.” left out
as §4

DAT = assay: Ex vivo transporter occupancy assay, DAT ([125I]RTI-55, brain tissue); assay type: in vivo; settings: dosed orally, time until sacrifice 3 h
From the text: as §1, §2
as §3, with “After incubation, the reactions were terminated by the addition of ice-cold assay buffer and rapid filtration through a Brandel Cell Harvester using FPXLR-196 filters.” left out
as §4

hSERT, sequence (P31645 whole entry): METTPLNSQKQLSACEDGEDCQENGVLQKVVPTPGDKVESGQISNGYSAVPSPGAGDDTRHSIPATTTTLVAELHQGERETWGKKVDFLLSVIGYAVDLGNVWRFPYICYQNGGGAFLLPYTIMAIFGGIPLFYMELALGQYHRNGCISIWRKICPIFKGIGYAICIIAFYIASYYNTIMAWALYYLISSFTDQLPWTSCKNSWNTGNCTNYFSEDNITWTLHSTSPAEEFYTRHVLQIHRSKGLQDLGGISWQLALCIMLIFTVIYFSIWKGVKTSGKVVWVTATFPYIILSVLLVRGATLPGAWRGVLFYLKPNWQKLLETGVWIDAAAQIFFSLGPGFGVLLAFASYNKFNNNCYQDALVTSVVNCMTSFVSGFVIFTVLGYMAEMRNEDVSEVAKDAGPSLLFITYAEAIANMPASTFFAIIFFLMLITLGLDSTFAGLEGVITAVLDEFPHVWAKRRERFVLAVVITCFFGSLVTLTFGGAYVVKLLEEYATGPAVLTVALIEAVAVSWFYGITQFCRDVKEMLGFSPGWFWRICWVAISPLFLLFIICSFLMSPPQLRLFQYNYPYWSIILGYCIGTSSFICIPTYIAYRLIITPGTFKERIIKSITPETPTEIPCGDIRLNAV

| Structure (SMILES) | IC50 (hSERT) | IC50 (hDAT) | IC50 (hNET) | % Occupancy SERT (SERT; 3 mg/kg) | % Occupancy NET (NET; 3 mg/kg) | % Occupancy DAT (DAT; 3 mg/kg) | % Occupancy SERT (SERT; 1 mg/kg) | % Occupancy DAT (DAT; 1 mg/kg) | % Occupancy NET (NET; 1 mg/kg) |
| --- | --- | --- | --- | --- | --- | --- | --- | --- | --- |
| FC(F)Oc1ccc(-c2ccc3c(c2)CN2CCC3(c3ccc(Cl)c(Cl)c3)CC2)nn1 [Example 39, 5-(3,4-dichlorophenyl)-8-(6-(difluoromethoxy)pyridazin-3-yl)-2,5-ethano-2,3,4,5-tetrahydro-1H-benzo[c]azepine] | 3.8 nM | 26.1 nM | 53.5 nM | 59% | 41% | – | – | – | – |
| O=C1NC2C=CC(c3ccc4c(c3)CN3CCC4(c4ccc(Cl)cc4)CC3)=CC2O1 (centres unmarked) [Example 22, 6-(5-(4-chlorophenyl)-2,5-ethano-2,3,4,5-tetrahydro-1H-benzo[c]azepin-8-yl)-3,3a-dihydrobenzo[d]oxazol-2(7aH)-one] | 3.4 nM | 58.6 nM | 806 nM | 60% | 0% | 5% | – | – | – |
| FC(F)(F)c1ccc(Oc2ccc3c(c2)CN2CCC3(c3ccc(Cl)cc3)CC2)nn1 [Example 32, 5-(4-chlorophenyl)-2,5-ethano-8-(6-(trifluoromethyl)pyridazin-3-yloxy)-2,3,4,5-tetrahydro-1H-benzo[c]azepine] | 4.3 nM | 36.5 nM | 124 nM | 74% | 0% | 42% | – | – | – |
| Clc1ccc(C23CCN(CC2)Cc2cc(-c4cnccn4)ccc23)cc1 [Example 17, 5-(4-chlorophenyl)-2,5-ethano-8-(pyrazin-2-yl)-2,3,4,5-tetrahydro-1H-benzo[c]azepine] | 5.3 nM | 83.5 nM | 2300 nM | – | – | – | 77% | 0% | 12% |
| Nc1cnc(-c2ccc3c(c2)CN2CCC3(c3ccc(Cl)c(Cl)c3)CC2)cn1 [Example 42, 5-(5-(3,4-dichlorophenyl)-2,5-ethano-2,3,4,5-tetrahydro-1H-benzo[c]azepin-8-yl)pyrazin-2-amine] | 5.9 nM | 9.2 nM | 155 nM | 82% | 39% | 54% | – | – | – |
| FC(F)Oc1ccc(-c2ccc3c(c2)CN2CCC3(c3ccc(Cl)cc3)CC2)nn1 [Example 14, 5-(4-chlorophenyl)-8-(6-(difluoromethoxy)pyridazin-3-yl)-2,5-ethano-2,3,4,5-tetrahydro-1H-2-benzo[c]azepine] | 1.1 nM | 57.3 nM | 264 nM | 79% | 0% | 12% | – | – | – |
| CS(=O)(=O)c1ccc(-c2ccc3c(c2)CN2CCC3(c3ccc(Cl)cc3)CC2)cc1 [Example 26, 5-(4-chlorophenyl)-2,5-ethano-8-(4-(methylsulfonyl)phenyl)-2,3,4,5-tetrahydro-1H-benzo[c]azepine] | 7.2 nM | 63 nM | 432 nM | – | – | – | 14% | 3% | 0% |
| FC(F)Oc1ccc(-c2ccc3c(c2)CN2CCC3(c3ccc(Cl)cc3)C2)nn1 (single isomer, unassigned) [6(−), 5-(4-chlorophenyl)-8(6-(difluoromethoxy)pyridazin-3-yl)-2,5-methano-2,3,4,5-tetrahydro-1H-benzo[c]azepine] | 5.9 nM | 87.2 nM | 275 nM | 59% | 0% | 12% | – | – | – |
| Fc1ccc(C23CCN(CC2)Cc2cc(Oc4ccc(C(F)(F)F)nn4)ccc23)cc1Cl [Example 47, 5-(3-chloro-4-fluorophenyl)-2,5-ethano-8-(6-(trifluoromethyl)pyridazin-3-yloxy)-2,3,4,5-tetrahydro-1H-benzo[c]azepine] | 6.4 nM | 9 nM | 112 nM | – | – | – | 34% | 17% | 0% |
| Nc1cnc(-c2ccc3c(c2)CN2CCC3(c3ccc(Cl)cc3)CC2)cn1 [Example 18, 5-(5-(4-chlorophenyl)-2,5-ethano-2,3,4,5-tetrahydro-1H-benzo[c]azepin-8-yl)pyrazin-2-amine] | 3.5 nM | 47.6 nM | 925 nM | 89% | 6% | 15% | – | – | – |
| Oc1ccc(-c2ccc3c(c2)CN2CCC3(c3ccc(Cl)cc3)C2)nn1 (single isomer, unassigned) [7(−), 6-(5-(4-chlorophenyl)-2,5-methano-2,3,4,5-tetrahydro-1H-benzo[c]azepin-8-yl)pyridazin-3-ol] | 6.4 nM | 16.6 nM | 103 nM | – | – | – | 70% | 1% | 46% |
| Fc1cc(C23CCN(CC2)Cc2cc(Oc4ccc(C(F)(F)F)nn4)ccc23)ccc1Cl [Example 48, 5-(4-chloro-3-fluorophenyl)-2,5-ethano-8-(6-(trifluoromethyl)pyridazin-3-yloxy)-2,3,4,5-tetrahydro-1H-benzo[c]azepine] | 7.2 nM | 10.1 nM | 134 nM | – | – | – | 21% | 12% | 0% |
| FC(F)(F)c1ccc(Oc2ccc3c(c2)CN2CCC3(c3ccc(Cl)c(Cl)c3)CC2)nn1 [Example 45, 5-(3,4-dichlorophenyl)-2,5-ethano-8-(6-(trifluoromethyl)pyridazin-3-yloxy)-2,3,4,5-tetrahydro-1H-benzo[c]azepine] | 4.8 nM | 0.7 nM | 35.1 nM | – | – | – | 46% | 17% | 0% |
